Structures can show the parent of a compound that is named as a salt.
Tested on: rat prostatic vas deferens

COC(=O)[C@@H]1[C@H]2C[C@H]3c4[nH]c5ccccc5c4CCN3C[C@@H]2CC[C@@H]1O [yohimbine, yohimbine hydrochloride]
effect on the evoked responses: no effect
